Measurements as given in ChEMBL document CHEMBL3137667, “[Drug-induced liver injury; fourteenth updated edition of the bibliographic database of liver injuries and related drugs]” (Gastroenterol Clin Biol, 2004).

Columns and labels:
[1] = human, serum
[2] = human
[3] = human; remark: listed apart in the source
[4] = human, serum; remark: listed apart in the source
[5] = human; remark: listed apart in the source
[6] = human, serum, 4383 h
[7] = Highest frequency of acute liver toxicity observed during clinical trials, expressed as a percentage. [column '% AIGUE' in source]; conditions: human
[8] = human; remark: listed apart in the source
[9] = human; remark: listed apart in the source
[10] = human; remark: listed apart in the source
[11] = human; remark: listed apart in the source
[12] = human; remark: listed apart in the source
[13] = Highest frequency of moderate liver toxicity observed during clinical trials, expressed as a percentage. [column '% BIOL' in source]; conditions: human
[14] = human; remark: listed apart in the source
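For Hepatotoxicity (association with vascular disease) in this document: count of indexed literature references reporting vascular liver injury in humans, e.g. peliosis hepatitis, hepatic veno-occlusive disease or Budd-Chiari syndrome.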
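For Hepatotoxicity (benign tumour) in this document: value is a count of indexed literature references citing a benign tumour confirmed by histopathology.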
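For Hepatotoxicity (choleostasis) in this document: human cholestatic liver injury, shown by histopathology or by peak ALT or AST elevation over alkaline phosphatase ratio below 2, value counts indexed literature reports.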
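For Hepatotoxicity (chronic liver disease) in this document: chronic liver injury confirmed by histopathology or persistently raised serum aminotransferase activity beyond 6 months, value given as the count of indexed literature references.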
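For Hepatotoxicity (cirrhosis) in this document: value is a count of indexed literature references reporting cirrhosis confirmed by histopathology.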
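For Hepatotoxicity (cytolytic) in this document: human cytolytic liver injury, shown by histopathology or by a ratio above 5 of peak ALT or AST elevation to alkaline phosphatase elevation, value counts indexed references.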
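For Hepatotoxicity (granulomatous hepatitis) in this document: value is a count of indexed literature references reporting granulomatous liver disease confirmed by histopathology.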
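For Hepatotoxicity (malignant tumour) in this document: malignant tumour confirmed by histopathology, value gives the count of indexed literature references reporting it.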
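For Hepatotoxicity (severe hepatitis) in this document: human clinical data: severe hepatitis, meaning potentially life-threatening liver failure or clinically observed cases, the value counts how many indexed literature references report it.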
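For Hepatotoxicity (steatosis) in this document: steatosis confirmed by histopathology, value is the count of indexed references.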

COc1cc(NCc2ccc3nc(N)nc(N)c3c2C)cc(OC)c1OC [TRIMETREXATE]
Hepatotoxicity (moderate) [1]: 10
Hepatotoxicity (association with vascular disease) [2]: 0
Hepatotoxicity (granulomatous hepatitis) [3]: 0
Hepatotoxicity (acute) [4]: 1
Hepatotoxicity (benign tumour) [5]: 0
Hepatotoxicity (chronic liver disease) [6]: 0
Hepatotoxicity (acute) [7]: 8%
Hepatotoxicity (cytolytic) [8]: 0
Hepatotoxicity (choleostasis) [9]: 0
Hepatotoxicity (cirrhosis) [10]: 0
Hepatotoxicity (severe hepatitis) [11]: 0
Hepatotoxicity (steatosis) [12]: 0
Hepatotoxicity (moderate) [13]: 25%
Hepatotoxicity (malignant tumour) [14]: 0

Nc1nc(-c2ccccc2)c(Br)c(=O)[nH]1 [BROPIRIMINE]
Hepatotoxicity (moderate) [1]: 1
Hepatotoxicity (association with vascular disease) [2]: 0
Hepatotoxicity (granulomatous hepatitis) ([3]; Liver): 0
Hepatotoxicity (acute) [4]: 0
Hepatotoxicity (benign tumour) [5]: 0
Hepatotoxicity (chronic liver disease) [6]: 0
Hepatotoxicity (acute) ([7]; Liver): 0%
Hepatotoxicity (cytolytic) ([8]; Liver): 0
Hepatotoxicity (choleostasis) ([9]; Liver): 0
Hepatotoxicity (cirrhosis) [10]: 0
Hepatotoxicity (severe hepatitis) ([11]; Liver): 0
Hepatotoxicity (steatosis) [12]: 0
Hepatotoxicity (moderate) ([13]; Liver): 3.1%
Hepatotoxicity (malignant tumour) [14]: 0

O=C(COCCOCCOCC(=O)Nc1c(I)cc(I)c(C(=O)O)c1I)Nc1c(I)cc(I)c(C(=O)O)c1I [IOTROXIC ACID]
Hepatotoxicity (moderate) [1]: 1
Hepatotoxicity (association with vascular disease) [2]: 0
Hepatotoxicity (granulomatous hepatitis) [3]: 0
Hepatotoxicity (acute) [4]: 0
Hepatotoxicity (benign tumour) [5]: 0
Hepatotoxicity (chronic liver disease) [6]: 0
Hepatotoxicity (acute) [7]: 0%
Hepatotoxicity (cytolytic) [8]: 0
Hepatotoxicity (choleostasis) [9]: 0
Hepatotoxicity (cirrhosis) [10]: 0
Hepatotoxicity (severe hepatitis) [11]: 0
Hepatotoxicity (steatosis) [12]: 0
Hepatotoxicity (moderate) [13]: 0%
Hepatotoxicity (malignant tumour) [14]: 0

Clc1cccc(C(c2ccc3[nH]cnc3c2)n2ccnc2)c1 (stereo not drawn) [LIAROZOLE]
Hepatotoxicity (moderate) [1]: 1
Hepatotoxicity (association with vascular disease) [2]: 0
Hepatotoxicity (granulomatous hepatitis) [3]: 0
Hepatotoxicity (acute) [4]: 0
Hepatotoxicity (benign tumour) [5]: 0
Hepatotoxicity (chronic liver disease) [6]: 0
Hepatotoxicity (acute) [7]: 0%
Hepatotoxicity (cytolytic) [8]: 0
Hepatotoxicity (choleostasis) [9]: 0
Hepatotoxicity (cirrhosis) [10]: 0
Hepatotoxicity (severe hepatitis) [11]: 0
Hepatotoxicity (steatosis) [12]: 0
Hepatotoxicity (moderate) [13]: 2.9%
Hepatotoxicity (malignant tumour) [14]: 0

CO/N=C(\C(=O)N[C@@H]1C(=O)N2C(C(=O)[O-])=C(C[n+]3ccn4ncccc43)CS[C@H]12)c1nsc(N)n1 [CEFOZOPRAN]
Hepatotoxicity (moderate) [1]: 68
Hepatotoxicity (association with vascular disease) [2]: 0
Hepatotoxicity (granulomatous hepatitis) [3]: 0
Hepatotoxicity (acute) [4]: 0
Hepatotoxicity (benign tumour) [5]: 0
Hepatotoxicity (chronic liver disease) [6]: 0
Hepatotoxicity (acute) [7]: 0%
Hepatotoxicity (cytolytic) [8]: 0
Hepatotoxicity (choleostasis) [9]: 0
Hepatotoxicity (cirrhosis) [10]: 0
Hepatotoxicity (severe hepatitis) [11]: 0
Hepatotoxicity (steatosis) [12]: 0
Hepatotoxicity (moderate) [13]: 50%
Hepatotoxicity (malignant tumour) [14]: 0

CC/C(=C(/c1ccc(OCCN(C)C)cc1)c1cccc(O)c1)c1ccccc1 [DROLOXIFENE]
Hepatotoxicity (moderate) [1]: 4
Hepatotoxicity (association with vascular disease) [2]: 0
Hepatotoxicity (granulomatous hepatitis) [3]: 0
Hepatotoxicity (acute) [4]: 0
Hepatotoxicity (benign tumour) [5]: 0
Hepatotoxicity (chronic liver disease) [6]: 0
Hepatotoxicity (acute) [7]: 0%
Hepatotoxicity (cytolytic) [8]: 0
Hepatotoxicity (choleostasis) [9]: 0
Hepatotoxicity (cirrhosis) [10]: 0
Hepatotoxicity (severe hepatitis) [11]: 0
Hepatotoxicity (steatosis) [12]: 0
Hepatotoxicity (moderate) [13]: 6.6%
Hepatotoxicity (malignant tumour) [14]: 0

CN1CCN(C2=Nc3cc(F)ccc3Cc3ccccc32)CC1 [FLUPERLAPINE]
Hepatotoxicity (moderate) [1]: 4
Hepatotoxicity (association with vascular disease) [2]: 0
Hepatotoxicity (granulomatous hepatitis) [3]: 0
Hepatotoxicity (acute) [4]: 0
Hepatotoxicity (benign tumour) [5]: 0
Hepatotoxicity (chronic liver disease) [6]: 0
Hepatotoxicity (acute) [7]: 0%
Hepatotoxicity (cytolytic) [8]: 0
Hepatotoxicity (choleostasis) [9]: 0
Hepatotoxicity (cirrhosis) [10]: 0
Hepatotoxicity (severe hepatitis) [11]: 0
Hepatotoxicity (steatosis) [12]: 0
Hepatotoxicity (moderate) [13]: 23%
Hepatotoxicity (malignant tumour) [14]: 0

O=C1CC2(CCCC2)CC(=O)N1CCCCN1CCN(c2nsc3ccccc23)CC1 [TIOSPIRONE]
Hepatotoxicity (moderate) [1]: 1
Hepatotoxicity (association with vascular disease) [2]: 0
Hepatotoxicity (granulomatous hepatitis) [3]: 0
Hepatotoxicity (acute) [4]: 0
Hepatotoxicity (benign tumour) [5]: 0
Hepatotoxicity (chronic liver disease) [6]: 0
Hepatotoxicity (acute) [7]: 0%
Hepatotoxicity (cytolytic) [8]: 0
Hepatotoxicity (choleostasis) [9]: 0
Hepatotoxicity (cirrhosis) [10]: 0
Hepatotoxicity (severe hepatitis) [11]: 0
Hepatotoxicity (steatosis) [12]: 0
Hepatotoxicity (moderate) [13]: 7.1%
Hepatotoxicity (malignant tumour) [14]: 0

CC(C)(Sc1cc(C(C)(C)C)c(O)c(C(C)(C)C)c1)Sc1cc(C(C)(C)C)c(O)c(C(C)(C)C)c1 [PROBUCOL]
Hepatotoxicity (moderate) [1]: 2
Hepatotoxicity (association with vascular disease) [2]: 0
Hepatotoxicity (granulomatous hepatitis) [3]: 0
Hepatotoxicity (acute) [4]: 0
Hepatotoxicity (benign tumour) [5]: 0
Hepatotoxicity (chronic liver disease) [6]: 0
Hepatotoxicity (acute) [7]: 0%
Hepatotoxicity (cytolytic) [8]: 0
Hepatotoxicity (choleostasis) [9]: 0
Hepatotoxicity (cirrhosis) [10]: 0
Hepatotoxicity (severe hepatitis) [11]: 0
Hepatotoxicity (steatosis) [12]: 0
Hepatotoxicity (moderate) [13]: 0%
Hepatotoxicity (malignant tumour) [14]: 0

CC(=O)[C@@]1(O)CC[C@H]2[C@@H]3CCC4=CC(=O)CC[C@]4(C)[C@H]3CC[C@@]21C [HYDROXYPROGESTERONE]
Hepatotoxicity (moderate) [1]: 0
Hepatotoxicity (association with vascular disease) [2]: 0
Hepatotoxicity (granulomatous hepatitis) [3]: 0
Hepatotoxicity (acute) [4]: 1
Hepatotoxicity (benign tumour) [5]: 0
Hepatotoxicity (chronic liver disease) [6]: 0
Hepatotoxicity (acute) [7]: 0%
Hepatotoxicity (cytolytic) [8]: 0
Hepatotoxicity (choleostasis) [9]: 1
Hepatotoxicity (cirrhosis) [10]: 0
Hepatotoxicity (severe hepatitis) [11]: 0
Hepatotoxicity (steatosis) [12]: 0
Hepatotoxicity (moderate) [13]: 0%
Hepatotoxicity (malignant tumour) [14]: 0

O=C(O)P(=O)(O)O [FOSCARNET]
Hepatotoxicity (moderate) [1]: 2
Hepatotoxicity (association with vascular disease) [2]: 0
Hepatotoxicity (granulomatous hepatitis) [3]: 0
Hepatotoxicity (acute) [4]: 0
Hepatotoxicity (benign tumour) [5]: 0
Hepatotoxicity (chronic liver disease) [6]: 0
Hepatotoxicity (acute) [7]: 0%
Hepatotoxicity (cytolytic) [8]: 0
Hepatotoxicity (choleostasis) [9]: 0
Hepatotoxicity (cirrhosis) [10]: 0
Hepatotoxicity (severe hepatitis) [11]: 0
Hepatotoxicity (steatosis) [12]: 0
Hepatotoxicity (moderate) [13]: 12%
Hepatotoxicity (malignant tumour) [14]: 0

CO/N=C(\C(=O)N[C@@H]1C(=O)N2C(C(=O)O)=C(CSc3cnns3)CS[C@H]12)c1csc(N)n1 [CEFUZONAM]
Hepatotoxicity (moderate) [1]: 19
Hepatotoxicity (association with vascular disease) [2]: 0
Hepatotoxicity (granulomatous hepatitis) [3]: 0
Hepatotoxicity (acute) [4]: 0
Hepatotoxicity (benign tumour) [5]: 0
Hepatotoxicity (chronic liver disease) [6]: 0
Hepatotoxicity (acute) [7]: 0%
Hepatotoxicity (cytolytic) [8]: 0
Hepatotoxicity (choleostasis) [9]: 0
Hepatotoxicity (cirrhosis) [10]: 0
Hepatotoxicity (severe hepatitis) [11]: 0
Hepatotoxicity (steatosis) [12]: 0
Hepatotoxicity (moderate) [13]: 14.3%
Hepatotoxicity (malignant tumour) [14]: 0
